Assay results taken from ChEMBL document CHEMBL5346980 (J Med Chem, 2023).
pIC50, pKi: −log10 of the molar value.

What was measured:
Carbonic anhydrase 1 = Carbonic anhydrase 1 (Homo sapiens, UniProt P00915); experiment: Inhibition of recombinant human carbonic anhydrase 1 incubated for 15 mins prior to testing by phenol red based stopped-flow CO2 hydration assay
Carbonic anhydrase 2 = Carbonic anhydrase 2 (Homo sapiens, UniProt P00918); experiment: Inhibition of recombinant human carbonic anhydrase 2 incubated for 15 mins prior to testing by phenol red based stopped-flow CO2 hydration assay
[1] = target: T1, Vascular endothelial growth factor receptor 2 (Homo sapiens, UniProt P35968)
T1 sequence (P35968 whole entry): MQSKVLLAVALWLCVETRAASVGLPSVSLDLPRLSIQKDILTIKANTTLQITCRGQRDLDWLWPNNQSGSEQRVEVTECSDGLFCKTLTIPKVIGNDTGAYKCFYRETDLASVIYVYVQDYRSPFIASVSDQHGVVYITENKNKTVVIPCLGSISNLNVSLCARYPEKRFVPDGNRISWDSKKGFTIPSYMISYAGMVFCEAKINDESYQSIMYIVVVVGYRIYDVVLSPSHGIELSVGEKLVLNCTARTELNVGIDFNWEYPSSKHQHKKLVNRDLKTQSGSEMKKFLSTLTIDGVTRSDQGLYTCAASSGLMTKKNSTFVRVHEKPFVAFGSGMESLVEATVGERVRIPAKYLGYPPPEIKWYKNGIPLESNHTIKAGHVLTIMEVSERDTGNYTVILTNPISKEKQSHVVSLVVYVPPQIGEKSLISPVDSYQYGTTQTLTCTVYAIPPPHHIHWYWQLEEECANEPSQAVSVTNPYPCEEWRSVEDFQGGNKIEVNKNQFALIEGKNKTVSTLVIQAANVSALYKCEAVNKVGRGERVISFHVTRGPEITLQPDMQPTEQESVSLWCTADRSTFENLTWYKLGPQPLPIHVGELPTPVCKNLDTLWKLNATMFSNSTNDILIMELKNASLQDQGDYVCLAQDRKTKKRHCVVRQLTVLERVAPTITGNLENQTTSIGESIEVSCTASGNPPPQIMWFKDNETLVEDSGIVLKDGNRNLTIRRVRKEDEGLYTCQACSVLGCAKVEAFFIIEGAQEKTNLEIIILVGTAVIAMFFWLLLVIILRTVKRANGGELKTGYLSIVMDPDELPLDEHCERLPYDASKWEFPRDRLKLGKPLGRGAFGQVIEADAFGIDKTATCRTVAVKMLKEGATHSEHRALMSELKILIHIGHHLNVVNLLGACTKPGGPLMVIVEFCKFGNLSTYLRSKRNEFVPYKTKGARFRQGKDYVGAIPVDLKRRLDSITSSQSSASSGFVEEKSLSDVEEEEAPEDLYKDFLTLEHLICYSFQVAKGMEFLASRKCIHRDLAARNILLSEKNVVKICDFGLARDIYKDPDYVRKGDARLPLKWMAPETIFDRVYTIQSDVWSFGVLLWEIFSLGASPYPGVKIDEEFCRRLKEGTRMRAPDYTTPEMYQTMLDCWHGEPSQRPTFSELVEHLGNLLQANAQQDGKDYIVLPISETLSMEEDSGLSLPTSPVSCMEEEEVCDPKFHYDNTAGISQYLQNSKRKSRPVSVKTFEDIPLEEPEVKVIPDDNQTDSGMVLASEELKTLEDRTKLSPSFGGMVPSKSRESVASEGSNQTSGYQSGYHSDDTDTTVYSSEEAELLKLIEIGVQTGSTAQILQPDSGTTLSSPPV

HepG2 = experiment: cells; settings: Homo sapiens
Description: Cytotoxicity against human HepG2 cells by MTT assay

[2] = target: T1, Vascular endothelial growth factor receptor 2; remark: listed apart in the source
Description: Inhibition of human VEGFR-2 by ELISA

Chain of Carbonic anhydrase 1 (P00915 whole entry): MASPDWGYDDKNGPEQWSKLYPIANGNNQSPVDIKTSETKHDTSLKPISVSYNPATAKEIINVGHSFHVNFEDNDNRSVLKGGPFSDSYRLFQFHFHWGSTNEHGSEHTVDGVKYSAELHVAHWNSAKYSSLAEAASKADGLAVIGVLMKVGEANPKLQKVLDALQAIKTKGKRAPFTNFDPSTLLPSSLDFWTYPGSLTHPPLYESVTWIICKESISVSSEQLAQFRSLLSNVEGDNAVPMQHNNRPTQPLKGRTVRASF

NS(=O)(=O)c1ccc(CCNC(=O)Nc2nc(-c3ccccc3)n(-c3cccc(Cl)c3)n2)cc1
pKi (Carbonic anhydrase 1): 7.21 | pKi (Carbonic anhydrase 2): 7.70

NS(=O)(=O)c1ccc(CCNC(=O)Nc2nc(-c3ccccc3)n(-c3ccc(F)cc3)n2)cc1
pKi (Carbonic anhydrase 1): 7.40 | pKi (Carbonic anhydrase 2): 8.47

COc1ccc(-n2nc(NC(=O)NCCc3ccc(S(N)(=O)=O)cc3)nc2-c2ccccc2)cc1OC
pKi (Carbonic anhydrase 1): 6.82 | pKi (Carbonic anhydrase 2): 7.79

COc1ccc(-n2nc(NC(=O)Nc3ccc(C)c(S(N)(=O)=O)c3)nc2-c2ccccc2)cc1OC
pKi (Carbonic anhydrase 2): 6.26

NS(=O)(=O)c1ccc(CCNC(=O)Nc2nc(-c3ccccc3)n(-c3ccc(Cl)cc3)n2)cc1
pKi (Carbonic anhydrase 2): 7.38

COc1cccc(-n2nc(NC(=O)Nc3ccc(S(N)(=O)=O)cc3)nc2-c2ccccc2)c1
pKi (Carbonic anhydrase 2): 7.87

Cc1ccc(NC(=O)Nc2nc(-c3ccccc3)n(-c3ccc(Cl)cc3)n2)cc1S(N)(=O)=O
pIC50 [1]: 6.27 | pKi (Carbonic anhydrase 1): < 5.00 | pKi (Carbonic anhydrase 2): 6.90

NS(=O)(=O)c1cccc(NC(=O)Nc2nc(-c3ccccc3)n(-c3ccc(F)cc3)n2)c1
pKi (Carbonic anhydrase 1): 5.31 | pKi (Carbonic anhydrase 2): 7.00

NS(=O)(=O)c1ccc(NC(=O)Nc2nc(-c3ccccc3)n(-c3ccc(F)cc3)n2)cc1
pKi (Carbonic anhydrase 1): 5.65 | pKi (Carbonic anhydrase 2): 7.60

COc1ccc(-n2nc(NC(=O)Nc3cccc(S(N)(=O)=O)c3)nc2-c2ccccc2)cc1
pIC50 [1]: 6.74 | pKi (Carbonic anhydrase 1): 5.38 | pKi (Carbonic anhydrase 2): 7.25

COc1ccc(-n2nc(NC(=O)Nc3cccc(S(N)(=O)=O)c3)nc2-c2ccccc2)cc1OC
pKi (Carbonic anhydrase 1): < 5.00 | pKi (Carbonic anhydrase 2): 6.55

NS(=O)(=O)c1cccc(NC(=O)Nc2nc(-c3ccccc3)n(-c3ccc(Cl)cc3)n2)c1
pKi (Carbonic anhydrase 1): 5.08

COc1ccc(-n2nc(NC(=O)Nc3ccc(C)c(S(N)(=O)=O)c3)nc2-c2ccccc2)cc1
pIC50 [1]: 6.14 | pKi (Carbonic anhydrase 2): 7.14

COc1cccc(-n2nc(NC(=O)Nc3ccc(C)c(S(N)(=O)=O)c3)nc2-c2ccccc2)c1
pKi (Carbonic anhydrase 1): < 5.00 | pKi (Carbonic anhydrase 2): 6.64

COc1ccc(-n2nc(NC(=O)Nc3ccccc3S(N)(=O)=O)nc2-c2ccccc2)cc1
pKi (Carbonic anhydrase 1): < 5.00 | pKi (Carbonic anhydrase 2): 6.80

Cc1ccc(NC(=O)Nc2nc(-c3ccccc3)n(-c3ccc(F)cc3)n2)cc1S(N)(=O)=O
pKi (Carbonic anhydrase 1): < 5.00 | pKi (Carbonic anhydrase 2): 6.77

NS(=O)(=O)c1cccc(NC(=O)Nc2nc(-c3ccccc3)n(-c3cccc(Cl)c3)n2)c1
pKi (Carbonic anhydrase 1): 5.24 | pKi (Carbonic anhydrase 2): 7.00

COc1cccc(-n2nc(NC(=O)Nc3ccccc3S(N)(=O)=O)nc2-c2ccccc2)c1
pKi (Carbonic anhydrase 1): < 5.00 | pKi (Carbonic anhydrase 2): 6.80

NS(=O)(=O)c1ccc(NC(=O)Nc2nc(-c3ccccc3)n(-c3cccc(Cl)c3)n2)cc1
pIC50 [1]: < 6.00 | pKi (Carbonic anhydrase 1): 5.57

COc1ccc(-n2nc(NC(=O)NCCc3ccc(S(N)(=O)=O)cc3)nc2-c2ccccc2)cc1
pKi (Carbonic anhydrase 1): 7.08

COc1cccc(-n2nc(NC(=O)Nc3cccc(S(N)(=O)=O)c3)nc2-c2ccccc2)c1
pKi (Carbonic anhydrase 1): 5.03 | pKi (Carbonic anhydrase 2): 7.04

NS(=O)(=O)c1ccccc1NC(=O)Nc1nc(-c2ccccc2)n(-c2ccc(F)cc2)n1
pKi (Carbonic anhydrase 1): < 5.00 | pKi (Carbonic anhydrase 2): 6.42

COc1ccc(-n2nc(NC(=O)Nc3ccc(S(N)(=O)=O)cc3)nc2-c2ccccc2)cc1OC
pKi (Carbonic anhydrase 2): 7.77

NS(=O)(=O)c1ccc(NC(=O)Nc2nc(-c3ccccc3)n(-c3ccc(Cl)cc3)n2)cc1
pIC50 [1]: 6.50 | pKi (Carbonic anhydrase 2): 7.07

Cc1ccc(NC(=O)Nc2nc(-c3ccccc3)n(-c3cccc(Cl)c3)n2)cc1S(N)(=O)=O
pIC50 [1]: 7.02 | pKi (Carbonic anhydrase 1): < 5.00 | pKi (Carbonic anhydrase 2): 7.04

COc1ccc(-n2nc(NC(=O)Nc3ccc(S(N)(=O)=O)cc3)nc2-c2ccccc2)cc1
pKi (Carbonic anhydrase 1): 5.41 | pKi (Carbonic anhydrase 2): 7.53

COc1cccc(-n2nc(NC(=O)NCCc3ccc(S(N)(=O)=O)cc3)nc2-c2ccccc2)c1
pKi (Carbonic anhydrase 1): 6.98 | pKi (Carbonic anhydrase 2): 7.45

NS(=O)(=O)c1ccccc1NC(=O)Nc1nc(-c2ccccc2)n(-c2cccc(Cl)c2)n1
pKi (Carbonic anhydrase 1): < 5.00

COc1cc(-c2nc(C(=O)Nc3ccccc3)nn2-c2ccc(F)c(Cl)c2)cc(OC)c1OC
pIC50 (HepG2): 6.62 | pIC50 [2]: 7.70

NS(=O)(=O)c1ccccc1NC(=O)Nc1nc(-c2ccccc2)n(-c2ccc(Cl)cc2)n1
pIC50 [1]: 6.57 | pKi (Carbonic anhydrase 1): < 5.00 | pKi (Carbonic anhydrase 2): 6.62

COc1ccc(-n2nc(NC(=O)Nc3ccccc3S(N)(=O)=O)nc2-c2ccccc2)cc1OC
pKi (Carbonic anhydrase 1): < 5.00 | pKi (Carbonic anhydrase 2): 6.95
